target: T1, G12D-mutant human KRAS (amino acid residues 1-188) (Homo sapiens, UniProt P01116, G12D); assay: KRAS Binding Disruption Assay (AlphaScreen; biotinylated KRpep-2d analogue or RAF1-RBD), G12D; details: KRAS G12D; geometric mean; read-out: KRAS GMean IC50 (uM) MUTATION: G12D
T1 construct: G12D or G12C-mutant human KRAS (amino acid residues 1-188) with FLAG tag; made in house; host or cells: E. coli
Experimental: Compound binding disrupts the interaction of KRpep-2d or RAF1-RBD with KRAS, leading to a decrease in Alpha signal.
All assay components were prepared in 20 mM HEPES (pH 7.5), 100 mM NaCl, 5 mM MgCl2, 0.01% Tween-20, and 0.01% BSA. Biotinylated analogues of KRpep-2d were custom synthesized. The binding disruption assays were performed using 5-20 nM of mutant KRAS and 5-20 nM of either biotinylated KRpep-2d analogue or RAF1-RBD. 19 μL of KRAS protein and 4 μL of biotinylated KRpep-2d or RAF1-RBD were added to the wells of a 384-well plate containing 1 μL of various concentrations of test compound or DMSO vehicle. 16 wells containing KRAS, biotinylated KRpep-2d or RAF1-RBD, and 5% DMSO served as high controls. 16 wells containing KRAS only and 5% DMSO served as low controls. Binding reactions were incubated for 1 hour at 25° C., then Anti-Flag Acceptor and Streptavidin Donor Alpha beads were added at a final concentration of 10 μg/mL for an additional hour at room temperature. Alpha signal was read out on a Perkin Elmer Envision HTS instrument. The percentage inhibition at individual compound concentrations relative to high and low controls was calculated. The data were analyzed by using nonlinear regression to generate IC50 values.

T1 sequence (P01116 1-188 isoform P01116-2 G12D): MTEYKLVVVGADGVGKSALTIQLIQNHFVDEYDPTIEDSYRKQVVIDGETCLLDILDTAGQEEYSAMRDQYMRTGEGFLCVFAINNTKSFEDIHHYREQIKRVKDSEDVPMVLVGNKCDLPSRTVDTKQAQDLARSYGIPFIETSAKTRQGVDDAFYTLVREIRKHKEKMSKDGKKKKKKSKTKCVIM

| SMILES | IC50 |
| --- | --- |
| CC(CO)(CO)COc1nc(N2C[C@H]3CC[C@@H](C2)N3)c2ccc(-c3cc(O)cc4ccccc34)c(F)c2n1 [P-0525, 2-(((4-((1R,5S)-3,8-diazabicyclo[3.2.1]octan-3-yl)-8-fluoro-7-(3-hydroxynaphthalen-1-yl)quinazolin-2-yl)oxy)methyl)-2-methylpropane-1,3-diol] | 0.0001 to 10 µM |
| CN(C)C(=O)COc1nc(N2C[C@H]3CC[C@@H](C2)N3)c2ccc(-c3cc(O)cc4ccccc34)cc2n1 [P-0070, 2-((4-((1R,5S)-3,8-diazabicyclo[3.2.1]octan-3-yl)-7-(3-hydroxynaphthalen-1-yl)quinazolin-2-yl)oxy)-N,N-dimethylacetamide] | 10 to 100 µM |
| NC1(CCO)CN(c2nc(N3C[C@H]4CC[C@@H](C3)N4)c3ccc(-c4cc(O)cc5ccccc45)c(F)c3n2)C1 [P-0546, 4-(2-(3-amino-3-(2-hydroxyethyl)azetidin-1-yl)-4-((1R,5S)-3,8-diazabicyclo[3.2.1]octan-3-yl)-8-fluoroquinazolin-7-yl)naphthalen-2-ol] | 0.0001 to 10 µM |
| Oc1cc(-c2ccc3c(N4C[C@H]5CC[C@@H](C4)N5)nc(N4CCC5(CNC5)C4)nc3c2F)c2ccccc2c1 [P-0508, 4-(4-((1R,5S)-3,8-diazabicyclo[3.2.1]octan-3-yl)-8-fluoro-2-(2,6-diazaspiro[3.4]octan-6-yl)quinazolin-7-yl)naphthalen-2-ol] | 0.0001 to 10 µM |
| Oc1cc(-c2ccc3c(N4C[C@H]5CC[C@@H](C4)N5)nc(N4CC5(CCNC5)C4)nc3c2F)c2ccccc2c1 [P-0599] | 0.0001 to 10 µM |
| OCC1(COc2nc(N3C[C@H]4CC[C@@H](C3)N4)c3ccc(-c4cc(O)cc5ccccc45)c(F)c3n2)CCCC1 [P-0588, 4-(4-((1R,5S)-3,8-diazabicyclo[3.2.1]octan-3-yl)-8-fluoro-2-((1-(hydroxymethyl)cyclopentyl)methoxy)quinazolin-7-yl)naphthalen-2-ol] | 0.0001 to 10 µM |
| CN(CC(C)(C)CO)c1nc(N2C[C@H]3CC[C@@H](C2)N3)c2ccc(-c3cc(O)cc4ccccc34)c(F)c2n1 [P-0568, 4-(4-((1R,5S)-3,8-diazabicyclo[3.2.1]octan-3-yl)-8-fluoro-2-((3-hydroxy-2,2-dimethylpropyl)(methyl)amino)quinaz-olin-7-yl)naphthalen-2-ol] | 10 to 100 µM |
| CCc1cccc2c1N(c1ccc3c(N4C[C@H]5CC[C@@H](C4)N5)nc(OC[C@@H]4CCCN4C)nc3c1F)CCC2 [P-0560, 4-((1R,5S)-3,8-diazabicyclo[3.2.1]octan-3-yl)-7-(8-ethyl-3,4-dihydroquinolin-1(2H)-yl)-8-fluoro-2-(((S)-1-methylpyrrolidin-2-yl)methoxy)quinazoline] | 0.0001 to 10 µM |
| CN1CCC[C@H]1COc1nc(N2C[C@H]3CC[C@@H](C2)N3)c2cnc(-c3cc(O)cc4ccccc34)cc2n1 [P-0004, 4-(4-((1R,5S)-3,8-diazabicyclo[3.2.1]octan-3-yl)-2-(((S)-1-methylpyrrolidin-2-yl)methoxy)pyrido[4,3-d]pyrimidin-7-yl)naphthalen-2-ol] | 0.0001 to 10 µM |
| Fc1c(-c2csc3ccccc23)ccc2c(N3C[C@H]4CC[C@@H](C3)N4)nc(OCC34CCCN3CCC4)nc12 [P-0533, 7-(benzo[b]thiophen-3-yl)-4-((1R,5S)-3,8-diazabicyclo[3.2.1]octan-3-yl)-8-fluoro-2-((tetrahydro-1H-pyrrolizin-7a(5H)-yl)methoxy)quinazoline] | 0.0001 to 10 µM |
| CC(C)(C)C(CO)COc1nc(N2C[C@H]3CC[C@@H](C2)N3)c2ccc(-c3cc(O)cc4ccccc34)c(F)c2n1 (stereo partly drawn) [P-0585, 4-(4-((1R,5S)-3,8-diazabicyclo[3.2.1]octan-3-yl)-8-fluoro-2-(2-(hydroxymethyl)-3,3-dimethylbutoxy)quazolin-7-yl)naphthalen-2-ol] | 0.0001 to 10 µM |

More lines, now with the values ahead:

| IC50 | SMILES |
| --- | --- |
| 0.0001 to 10 µM | CC(C)C(COC(=O)C(F)(F)F)COc1nc(N2C[C@H]3CC[C@@H](C2)N3)c2ccc(-c3cc(O)cc4ccccc34)c(F)c2n1 (stereo partly drawn) [P-0575, 2-(((4-((1R,5S)-3,8-diazabicyclo[3.2.1]octan-3-yl)-8-fluoro-7-(3-hydroxynaphthalen-1-yl)quinazolin-2-yl)oxy)methyl)-3-methylbutyl 2,2,2-trifluoroacetate] |
| 0.0001 to 10 µM | NCC1(COc2nc(N3C[C@H]4CC[C@@H](C3)N4)c3ccc(-c4cc(O)cc5ccccc45)c(F)c3n2)CC(F)(F)C1 [P-0580, 4-(2-((1-(aminomethyl)-3,3-difluorocyclobutyl)methoxy)-4-((1R,5S)-3,8-diazabicyclo[3.2.1]octan-3-yl)-8-fluoroquinazolin-7-yl)naphthalen-2-ol] |
| 0.0001 to 10 µM | C#Cc1cccc2cccc(-c3ccc4c(N5C[C@H]6CC[C@@H](C5)N6)nc(OCC56CCCN5CCC6)nc4c3F)c12 [P-0521, 4-((1R,5S)-3,8-diazabicyclo[3.2.1]octan-3-yl)-7-(8-ethynylnaphthalen-1-yl)-8-fluoro-2-((tetrahydro-1H-pyrrolizin-7a(5H)-yl)methoxy)quinazoline] |
| 0.0001 to 10 µM | Oc1cc(-c2ccc3c(N4C[C@H]5CC[C@@H](C4)N5)nc(OCC4CCCO4)nc3c2)c2ccccc2c1 (stereo partly drawn) [P-0082, 4-(4-((1R,5S)-3,8-diazabicyclo[3.2.1]octan-3-yl)-2-((tetrahydrofuran-2-yl)methoxy)quinazolin-7-yl)naphthalen-2-ol] |
| 0.0001 to 10 µM | Oc1cc(-c2ccc3c(N4C[C@H]5CC[C@@H](C4)N5)nc(N4CC(N5CCC(O)C5)C4)nc3c2F)c2ccccc2c1 (stereo partly drawn) [P-0602, 1-(1-(4-((1R,5S)-3,8-diazabicyclo[3.2.1]octan-3-yl)-8-fluoro-7-(3-hydroxynaphthalen-1-yl)quinazolin-2-yl)azetidin-3-yl)pyrrolidin-3-ol] |
| 0.0001 to 10 µM | O=C1NCCN1CCOc1nc(N2C[C@H]3CC[C@@H](C2)N3)c2ccc(-c3cc(O)cc4ccccc34)c(F)c2n1 [P-0520, 1-(2-((4-((1R,5S)-3,8-diazabicyclo[3.2.1]octan-3-yl)-8-fluoro-7-(3-hydroxynaphthalen-1-yl)quinazolin-2-yl)oxy)ethyl)imidazolidin-2-one] |
| 0.0001 to 10 µM | CC(=O)Nc1ccc(Cl)c(-c2c(F)cc3c(N4C[C@H]5CC[C@@H](C4)N5)nc(OCC45CCCN4CCC5)nc3c2F)c1 [P-0594, N-(3-(4-((1R,5S)-3,8-diazabicyclo[3.2.1]octan-3-yl)-6,8-difluoro-2-((tetrahydro-1H-pyrrolizin-7a(5H)-yl)methoxy)quinazolin-7-yl)-4-chlorophenyl)acetamide] |
| 0.0001 to 10 µM | Nc1ccc(Cl)c(-c2c(F)cc3c(N4C[C@H]5CC[C@@H](C4)N5)nc(OCC45CCCN4CCC5)nc3c2F)c1 [P-0595, 3-(4-((1R,5S)-3,8-diazabicyclo[3.2.1]octan-3-yl)-6,8-difluoro-2-((tetrahydro-1H-pyrrolizin-7a(5H)-yl)methoxy)quinazolin-7-yl)-4-chloroaniline] |
| 0.0001 to 10 µM | CN1CCC[C@H]1COc1nc(N2C[C@@H]3C[C@H]2CN3)c2ccc(-c3cc(O)cc4ccccc34)cc2n1 [P-0052, 4-(4-((1S,4S)-2,5-diazabicyclo[2.2.1]heptan-2-yl)-2-(((S)-1-methylpyrrolidin-2-yl)methoxy)quinazolin-7-yl)naphthalen-2-ol] |

same assay, conditions: Table 4; geometric mean; comparison with compounds of WO 2017/172979; read-out: KRAS GMean IC50 (uM) MUTATION: G12D

| IC50 | SMILES |
| --- | --- |
| 16.5 µM | CN(C)CCCOc1nc(N2CCN(C)CC2)c2cc(Cl)c(-c3cc(O)cc4ccccc34)c(F)c2n1 [Compound 149 in WO 2017/172979, reference compound] |

— patent US20230081426A1, “COMPOUNDS AND METHODS FOR KRAS MODULATION AND INDICATIONS THEREFOR” (Plexxikon Inc., priority 2020, published 2023)
